Measurements as given in publication PMC6382696, “Drug Repurposing: The Anthelmintics Niclosamide and Nitazoxanide Are Potent TMEM16A Antagonists That Fully Bronchodilate Airways” (Frontiers in Pharmacology, 2019).
Like-named read-outs stand apart in the source and are kept apart here. Each block holds one compound with its values, some of them ahead of it.

Legend:
TMEM16A = conditions: ref Namkung et al., 2011; read-out: EC50 in activating TMEM16A; cited from earlier work
[1] = test system: human bronchial epithelial ALI cultures; assay: Muc5AC secretion from human bronchial epithelial ALI cultures; format: cell-based; conditions: 5 μM, 72 hours, p < 0.05
Description: (§1) 1.2 Effects of the TMEM16A opener Eact on leukotriene secretion and Muc5AC mucin production from human bronchial epithelial air-liquid interface cultures.
(§2) Normal, asthma and COPD human bronchial epithelial (HBE) cells were from Lonza (Walkersville, MD). Cells were grown on […] transparent PET transwell membranes insert (BD biosciences, San Diego). S-ALI air-liquid interface media (Lonza) was changed every other day until the cells reached confluence, at which time the apical medium was removed to establish an air liquid interface cultures. The basolateral medium was changed every other day. All experimentation was carried out on day 14-18 after ALI establishment. At this point, mature secretory cells are present in these differentiating cultures and the cells respond with maximal […] to IL-13 (10 ng/ml) (Peprotech, […]
(§3) Human ALI cultures from a normal donor were treated with Eact, Eact vehicle and 10 ng/ml IL13 in basolateral medium for 48 hrs.
(§4) After 48hr, 100 µl of basolateral medium were collected for determining leukotriene B4 and C4 secretion using ELISA kits from Enzo Life Sciences, Inc. and LSBio LifeSpan Biosciences Inc., respectively, and by following manufacture’s protocols. […]
(§5) Levels of Muc5AC protein in apical washes was then determined using a Muc5AC ELISA kit (Cosmo Bio USA, Carlsbad, CA) and following the manufacture’s protocol.

human ASM cells = assay: Eact-induced depolarization of human ASM cells (FLIPR membrane potential); format: cell-based
Description: While the method above using histamine represents the standard protocol we used to evaluate compound effects in blocking pro-contractile depolarization of human BSMCs, for some experiments provided as Supplementary Figures 1–44 we employed the cholinergics methacholine or carbachol instead of histamine, or evaluated if the TMEM16A opener, Eact, could itself act like contractants to induce BSMC membrane depolarization.
3.31 Supplementary Figure 31
Supplementary Figure 31. The small molecule TMEM16A activator, Eact , induces depolarization of primary human airway smooth muscle cells like the contractant carbachol. Kinetic traces from the FLIPR membrane potential assay indicate Eact (A) and carbachol (B) elicit a concentration dependent depolarization of human ASM cells which were serum starved for 4 hours [prf SmGM overnight + 4h prf SmBM]. The potency for Eact depolarization of ASM cells isolated from a normal, asthmatic or COPD patient is shown in panel (C). The […]
report for activation of TMEM16A. RFU, relative fluorescence units. AUC, area under the curve.
(also on this page, place not known: ‘Eact’ Carbachol TMEM16A 3.0 µM A B C)
(1 picture or pasted object on this page, not shown here)

[2] = test system: human bronchial epithelial ALI cultures; assay: Leukotriene (LTC4, LTB4) secretion from human bronchial epithelial ALI cultures; format: cell-based; conditions: 48 hrs, p < 0.05
Description: as §1, §2, §3, §4, §5

hTMEM16A (abc) = biological target: T1, hTMEM16A (abc) (Homo sapiens, UniProt Q5XXA6, DEL476-501); assay: medchem TMEM16A halide-sensitive YFP assay, 22-point dose-response; format: cell-based; parameters: expressed in transfected cells
T1 sequence (Q5XXA6 with tags, fused parts or gaps isoform Q5XXA6-5 DEL539-564): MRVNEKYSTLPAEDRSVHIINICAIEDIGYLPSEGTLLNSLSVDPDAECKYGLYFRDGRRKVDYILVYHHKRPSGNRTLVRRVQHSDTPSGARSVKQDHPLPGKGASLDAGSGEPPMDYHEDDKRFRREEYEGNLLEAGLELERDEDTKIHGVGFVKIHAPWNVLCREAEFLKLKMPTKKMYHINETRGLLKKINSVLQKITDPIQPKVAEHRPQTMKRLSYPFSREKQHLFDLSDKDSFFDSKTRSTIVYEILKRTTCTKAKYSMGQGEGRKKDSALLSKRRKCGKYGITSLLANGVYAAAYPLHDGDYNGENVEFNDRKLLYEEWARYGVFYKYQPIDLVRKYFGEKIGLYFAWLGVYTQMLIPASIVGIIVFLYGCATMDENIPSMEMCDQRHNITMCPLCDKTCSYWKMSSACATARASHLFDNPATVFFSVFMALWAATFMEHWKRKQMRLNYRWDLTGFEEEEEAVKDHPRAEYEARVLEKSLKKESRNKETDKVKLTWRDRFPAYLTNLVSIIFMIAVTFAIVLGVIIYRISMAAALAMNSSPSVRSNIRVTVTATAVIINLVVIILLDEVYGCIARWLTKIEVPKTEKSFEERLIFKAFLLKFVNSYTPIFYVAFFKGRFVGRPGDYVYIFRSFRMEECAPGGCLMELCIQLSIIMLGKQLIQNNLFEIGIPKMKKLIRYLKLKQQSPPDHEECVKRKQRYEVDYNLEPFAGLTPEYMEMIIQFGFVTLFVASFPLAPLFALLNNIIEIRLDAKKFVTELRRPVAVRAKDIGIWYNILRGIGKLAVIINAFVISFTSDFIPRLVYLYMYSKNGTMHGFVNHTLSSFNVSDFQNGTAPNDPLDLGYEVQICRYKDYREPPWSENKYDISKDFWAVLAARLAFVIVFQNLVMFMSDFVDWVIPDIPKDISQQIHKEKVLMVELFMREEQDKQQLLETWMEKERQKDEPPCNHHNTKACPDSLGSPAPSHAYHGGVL
Description: The TMEM16A HEK293T eYFP (H149Q, I153L) stable cell line for medchem support was generated by transfecting 10 μg of linearized hTMEM16A(abc) DNA constructs into HEK293T eYFP (H149Q,I153L) stable cells. The transfected cells were cultured under 200 μg/ml of hygromycin B selection for 20 days and the stable pool was single cell seeded in 96 well plate and duplicated plate were made after single cell clones were formed. YFP function assay were performed on duplicated plate and clones producing higher changes in fluorescence from the YFP assay were chosen for further expansion to form a stable cell line.
Plates were incubated for 24 h at 37°C with 5% CO2. On the assay day, medium was removed and replaced with 20 μl/well of assay buffer (Hank’s Balanced Salt Solution with 10 mM HEPES pH 7.4), 10 μl/well of 40x diluted compounds was added to assay plate and it was incubated at room temperature for 30 min, after which baseline fluorescence was read in the FLIPR instrument for 10 s. Then, 5 μl/well of a 3x trigger solution (24 mM iodide, 3 μM ionomycin in assay buffer) was added and the fluorescence kinetic trace was recorded for 2 min.

TMEM16A (acd) = biological target: T2, TMEM16A (acd) (Homo sapiens, UniProt Q5XXA6); assay: QPatch whole-cell electrophysiology, HEK293 TMEM16A (acd); format: cell-based; conditions: QPatch
T2 sequence (Q5XXA6 1-986): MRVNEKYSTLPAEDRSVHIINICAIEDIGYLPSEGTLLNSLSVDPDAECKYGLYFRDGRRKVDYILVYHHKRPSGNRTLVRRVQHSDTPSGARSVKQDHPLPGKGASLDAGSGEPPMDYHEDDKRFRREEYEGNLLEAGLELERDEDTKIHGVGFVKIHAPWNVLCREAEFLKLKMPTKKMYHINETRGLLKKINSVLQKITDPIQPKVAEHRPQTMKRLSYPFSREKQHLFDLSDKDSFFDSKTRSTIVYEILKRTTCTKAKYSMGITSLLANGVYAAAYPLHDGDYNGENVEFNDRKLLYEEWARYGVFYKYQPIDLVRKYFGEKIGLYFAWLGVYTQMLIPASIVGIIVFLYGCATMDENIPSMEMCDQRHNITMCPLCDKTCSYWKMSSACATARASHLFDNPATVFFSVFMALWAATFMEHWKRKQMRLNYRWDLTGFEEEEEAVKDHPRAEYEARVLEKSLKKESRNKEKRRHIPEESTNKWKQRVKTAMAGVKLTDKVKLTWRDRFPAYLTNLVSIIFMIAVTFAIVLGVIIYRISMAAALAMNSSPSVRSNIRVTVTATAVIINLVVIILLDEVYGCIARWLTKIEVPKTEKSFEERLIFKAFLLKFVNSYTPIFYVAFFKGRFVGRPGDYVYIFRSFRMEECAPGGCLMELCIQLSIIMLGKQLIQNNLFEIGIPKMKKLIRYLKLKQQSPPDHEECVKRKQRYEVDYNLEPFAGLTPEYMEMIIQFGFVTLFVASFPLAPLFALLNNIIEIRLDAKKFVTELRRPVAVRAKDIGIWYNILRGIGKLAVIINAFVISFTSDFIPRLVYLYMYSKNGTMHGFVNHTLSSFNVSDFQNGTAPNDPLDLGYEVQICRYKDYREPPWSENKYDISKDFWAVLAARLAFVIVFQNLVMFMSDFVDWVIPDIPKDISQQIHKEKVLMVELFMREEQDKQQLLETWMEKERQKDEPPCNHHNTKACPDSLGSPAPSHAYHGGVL
Description: HEK293 cells stably expressing the TMEM16A (acd) variant were purchased from SB Drug Discovery. The HEK293 TMEM16A (abc) stable cell line was from ChanTest and COLO-205 cells were purchased from ATCC. The same standard buffers and recording conditions listed below were used for QPatch studies on all three cell lines.
Recording Solutions: were made weekly as below and stored at room temperature until used. It is recommended not to add ATP to internal solution until immediately before using on the QPatch. The external buffer (in mM) was 140 NaCl, 4 KCl, 2 CaCl2, 1 MgCl2, 10 HEPES, 10 Glucose, pH7.4, while the internal buffer (in mM) was 110 CsCl, 20 TEA-Cl, 5.374 CaCl2, 1.75 MgCl2, 10 EGTA, 10 HEPES, 4 Na2ATP, pH 7.2.
Once established in whole-cell configuration, cells were clamped to a holding potential (Vhold) of 0 mV on 48 well single hole patch plate. A standardized IV protocol was used to elicit ionic current through the TMEM16A chloride channel at 20 s intervals. Steady-state voltage pulses were from −100 mV to +100 mV in +20 mV steps for a duration of 500 ms. After each pulse the voltage was returned to −100 mV for 50 ms to obtain tail currents, and then returned to the holding potential of 0 mV until the beginning of the next sweep. […] This ensures a minimum of 60 s per concentration incubation before measuring current block. Currents were acquired at 10 kHz and filtered at 2 kHz, leak subtraction and Rseries were disabled. A 1 MΩ minimum resistance was set because cells are held in an open channel state and therefore resistance is low.
A cumulative concentration response was measured where each cell is exposed to five concentrations of test article with a dilution factor of 1:5 (e.g., 0.048, 0.24, 1.2, 6, and 30 μM). Cells were recorded for ∼60 s per solution/compound addition. Initially, external solution is applied twice to allow currents to stabilize. Then vehicle (from the saline reservoir) is added twice to monitor any effect 0.3% DMSO might have on currents. This leads directly into the concentration runs by applying Concentration 1 (single addition) for 1 min. Concentration 2 is then applied for the subsequent minute, etc. Recovery/washout was monitored for a final minute with a final external solution addition.
[…] […] Each cell’s current magnitude was then normalized to itself at the initial 0.3% vehicle control period prior to compound application. This step is to account for differences in current size for each cell. Normalized responses to test article were plotted against their concentrations to reveal a concentration-inhibition plot.
A Normalized Group Hill fit was then performed on the plotted results to yield a pooled IC50 value, reconstructed from a minimum of two cells/concentration. The baseline response as well as the full response were constrained to 1 and 0, respectively.

cytochrome P450 enzymes = test system: cytochrome P450 enzymes; parameters: method as in White, 2004; Anderson and Curran, 2007; Rossignol, 2014; conditions: ref White, 2004; Anderson and Curran, 2007; Rossignol, 2014; cited from earlier work
airways = test system: airways; parameters: method as in Stocks et al., 2014; conditions: ref Stocks et al., 2014; cited from earlier work

EC50 (human ASM cells; read-out: average EC50 for Eact induced ASM depolarization): 1600 nM
SMILES: COCCN(C(=O)c1cc(OC)c(OC)c(OC)c1)c1nc(-c2ccccc2)cs1 [Eact]
EC50 (TMEM16A): 3000 nM
increase of Muc5AC secretion [1]: 2–3 fold
EC50 (human ASM cells; cells from normal, asthmatic or COPD patient, read-out: average EC50 for depolarizing human ASM cells): 1000 to 3000 nM
increase of leukotriene (LTC4, LTB4) secretion [2]: 6–12 fold

IC50 (hTMEM16A (abc); average, 22-point dose-response, iodide as permeant anion, read-out: TMEM16A eYFP Assay (IC50)): 1230 nM
scope of block of ionomycin-induced iodide eYFP quenching (hTMEM16A (abc); up to 55.6 μM): partially inhibiting
IC50 (TMEM16A (acd); outward current at +100 mV, 170 nM free intracellular calcium, ~60 s per concentration, read-out: TMEM16A Chloride Current (IC50)): 1260 ± 1310 nM
calcium-activated chloride current inhibited (TMEM16A (acd); maximum antagonist activity): Over 80%
SMILES: CC(=O)Oc1ccccc1C(=O)Nc1ncc([N+](=O)[O-])s1 [Nitazoxanide]
impact on cytochrome P450 enzymes (cytochrome P450 enzymes): no significant impact

SMILES: OCc1cc(C(O)CNCCCCCCOCCCCc2ccccc2)ccc1O (centres unmarked) [Salmeterol, salmeterol]
onset of action (airways): 90 min
